Some results are limits rather than exact numbers.

This is an account of results in ChEMBL document CHEMBL1122097 (J Med Chem, 1982).

Assay [1] is described as follows: Tested in vitro for its ability to displace 3[H] clozapine from non-muscarinic receptor in rat brain. Format: tissue-based.
The target in another assay is Dopamine receptor. Kind of assay: Displacement of 3[H]spiroperidol from Dopamine receptor in rat brain.
In assay [2] the target is Muscarinic acetylcholine receptor. Kind of assay: Tested in vitro for its ability to displace 3[H] clozapine from Muscarinic acetylcholine receptor in rat brain. Format: tissue-based.

As to `CN1CCN(C2=Cc3cc(Cl)ccc3Cc3ccccc32)CC1`, the half-inhibitory concentration (IC50) (usually the point on the concentration scale where inhibition reaches its midpoint) in assay [1] amounted to 13 nM. This lies in the double-digit nanomolar range.

`CN1CCN(C2=Nc3ccccc3Nc3ccccc32)CC1`: the IC50 at Dopamine receptor is greater than 10000 nM; in assay [1] it was 25 nM.

In turn, `CN1CCN(C2=Cc3ccccc3Cc3ccc(Cl)cc32)CC1` gave a concentration for half-maximal inhibition (IC50) in assay [1] of 10 nM.

In turn, `CN1CCN(C2=Cc3ccccc3Cc3ccccc32)CC1` had an IC50 in assay [1] of 3.7 nM.

For `CN1CCN(C2=Cc3cc(Cl)ccc3Oc3ccccc32)CC1`, the IC50 in assay [2] came out at 1970 nM; on Dopamine receptor it was 357 nM; in assay [1], 9.4 nM.

`CN1CCN(C2=Cc3ccccc3Oc3ccccc32)CC1`: the results for the IC50 (in assay [2]; on Dopamine receptor; in assay [1]) were 2290 nM, 1500 nM and 4 nM, respectively.

Turning to `CN1CCN(C2=Cc3ccccc3Oc3ccc(Cl)cc32)CC1`, the values for the concentration for half-maximal inhibition (IC50) (in assay [2]; at Dopamine receptor; in assay [1]) were 2027 nM, 27 nM and 7.3 nM, respectively.

As for `CN1CCN(C2=Nc3cc(Cl)ccc3Nc3ccccc32)CC1` [CLOZAPINE], the 50% inhibitory concentration (IC50) in assay [1] was determined as 13 nM.

As to `CN1CCN(C2=Nc3ccccc3Nc3ccc(Cl)cc32)CC1` [ISOCLOZAPINE], the values for the half-inhibitory concentration (IC50) in assay [2] and in assay [1] were 28 nM and 17 nM, respectively.
